Key:
[1] = Inhibition of Plasmodium falciparum HGXPRT assessed as xanthine/guanine conversion to xanthosine-5'-monophosphate/guanosine-5'-monophosphate by spectrophotometry in presence of PRPP
[2] = molecular target: T1, Hypoxanthine-guanine phosphoribosyltransferase (Homo sapiens, UniProt P00492); experiment: Inhibition of human HGPRT using xanthine/PRPP assessed as xanthine/guanine conversion to […]guanosine-5'-monophosphate by spectrophotometry in presence of PRPP
T1 sequence (P00492 whole entry): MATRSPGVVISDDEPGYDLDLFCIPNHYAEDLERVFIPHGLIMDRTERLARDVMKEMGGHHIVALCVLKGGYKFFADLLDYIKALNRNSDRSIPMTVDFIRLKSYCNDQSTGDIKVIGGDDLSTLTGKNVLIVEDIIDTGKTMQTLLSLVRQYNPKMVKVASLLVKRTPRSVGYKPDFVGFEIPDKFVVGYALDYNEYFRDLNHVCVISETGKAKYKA

| SMILES | Ki [2] | Ki [1] |
| --- | --- | --- |
| O=c1[nH]cnc2c(CNC(CO)(CO)COP(=O)(O)O)c[nH]c12 | > 10000 nM | 15300 nM |
| O=c1[nH]cnc2c(CN[C@H](CO)COP(=O)(O)O)c[nH]c12 | > 10000 nM | 2.4 nM |
| Nc1nc2c(CN[C@H](CO)COP(=O)(O)O)c[nH]c2c(=O)[nH]1 | > 10000 nM | 14.3 nM |
| Nc1nc2c(CN[C@@H](CO)COP(=O)(O)O)c[nH]c2c(=O)[nH]1 | > 10000 nM | 650 nM |
| O=c1[nH]cnc2c(CNCCCCP(=O)(O)O)c[nH]c12 | > 10000 nM | 490 nM |
| O=c1[nH]cnc2c(CCNCCCP(=O)(O)O)c[nH]c12 | 11300 nM | > 20000 nM |
| O=c1[nH]cnc2c(CN[C@H](CO)CCP(=O)(O)O)c[nH]c12 |  | 0.65 nM |
| O=c1[nH]cnc2c(CN[C@@H](CO)CCP(=O)(O)O)c[nH]c12 |  | 23.4 nM |
| O=c1[nH]cnc2c(CN[C@H](CO)CC(F)(F)P(=O)(O)O)c[nH]c12 | > 10000 nM | 87 nM |
| O=c1[nH]cnc2c(CNCP(=O)(O)O)c[nH]c12 | > 10000 nM | > 20000 nM |
| O=c1[nH]cnc2c(CNCCP(=O)(O)O)c[nH]c12 | > 10000 nM | 1900 nM |
| O=c1[nH]cnc2c(CNCCCP(=O)(O)O)c[nH]c12 | 4900 nM | 10.6 nM |
| O=c1[nH]cnc2c(CN[C@H](CO)CC(F)P(=O)(O)O)c[nH]c12 (mixture of isomers) |  | 1.2 nM |
| O=c1[nH]cnc2c(CNCC(O)CP(=O)(O)O)c[nH]c12 (racemic) | > 10000 nM | 9.1 nM |
| O=c1[nH]cnc2c(CNCC(CO)CP(=O)(O)O)c[nH]c12 (racemic) | > 10000 nM | 490 nM |
| O=c1[nH]c(Cl)nc2c(CNC(CO)COP(=O)(O)O)c[nH]c12 (racemic) | > 10000 nM | 9400 nM |

Continued, in another order:

| Ki [2] | SMILES | Ki [1] |
| --- | --- | --- |
| > 10000 nM | O=c1[nH]cnc2c(CN[C@H](CO)[C@H](O)COP(=O)(O)O)c[nH]c12 | 980 nM |
| > 10000 nM | O=c1[nH]cnc2c(CNCCCCCP(=O)(O)O)c[nH]c12 | 8600 nM |
| > 10000 nM | O=c1[nH]cnc2c(CNCCCP(=O)(O)O)n[nH]c12 | 27.6 nM |
| > 10000 nM | O=c1[nH]cnc2c(CCNCCP(=O)(O)O)c[nH]c12 | 620 nM |
| > 10000 nM | Nc1nc2c(CN[C@H](CO)CC(F)(F)P(=O)(O)O)c[nH]c2c(=O)[nH]1 | 100 nM |
| > 10000 nM | O=c1[nH]cnc2c(CNCCOP(=O)(O)O)c[nH]c12 | 14400 nM |
| > 10000 nM | O=c1[nH]cnc2c(CNC(CO)COP(=O)(O)O)c[nH]c12 (racemic) | 19 nM |

From ChEMBL document CHEMBL2413006, “Acyclic phosph(on)ate inhibitors of Plasmodium falciparum hypoxanthine-guanine-xanthine phosphoribosyltransferase” (Bioorg Med Chem, 2013)
